≈ marks a conversion by molar mass, not a printed value.
Assays:
[1] = test system: Polyketide synthase Pks13 (Mycobacterium tuberculosis (strain ATCC 25618 / H37Rv)), I6X8D2 [N1640S]; assay: Binding affinity to Mycobacterium tuberculosis Pks13-TE N1640S mutant expressed in Escherichia coli BL21(DE3) pLysS assessed as change in melting temperature at 1:5 compound to protein ratio by nanoDSF thermal stability analysis
[2] = test system: Polyketide synthase Pks13 (Mycobacterium tuberculosis (strain ATCC 25618 / H37Rv)), I6X8D2 [N1640S]; assay: Binding affinity to Mycobacterium tuberculosis Pks13-TE N1640S mutant expressed in Escherichia coli BL21(DE3) pLysS assessed as change in melting temperature at 1:10 compound to protein ratio by nanoDSF thermal stability analysis
[3] = test system: Polyketide synthase Pks13 (Mycobacterium tuberculosis (strain ATCC 25618 / H37Rv)), I6X8D2 [N1640K]; assay: Binding affinity to Mycobacterium tuberculosis Pks13-TE N1640K mutant expressed in Escherichia coli BL21(DE3) pLysS assessed as change in melting temperature at 1:5 compound to protein ratio by nanoDSF thermal stability analysis
[4] = test system: Polyketide synthase Pks13 (Mycobacterium tuberculosis (strain ATCC 25618 / H37Rv)), I6X8D2 [N1640K]; assay: Binding affinity to Mycobacterium tuberculosis Pks13-TE N1640K mutant expressed in Escherichia coli BL21(DE3) pLysS assessed as change in melting temperature at 1:10 compound to protein ratio by nanoDSF thermal stability analysis
[5] = test system: Mycobacterium tuberculosis; format: functional, Vero; conditions: V2475, 168 h, time 7 day
[6] = test system: Mycobacterium tuberculosis; format: functional, Vero; conditions: KZN494, 168 h, time 7 day
[7] = test system: Mycobacterium tuberculosis; format: functional, Vero; conditions: TF274, 168 h, time 7 day
[8] = test system: Mycobacterium tuberculosis; format: functional, Vero; conditions: R506, 168 h, time 7 day

| SMILES | ΔTm [1] [°C] | ΔTm [2] [°C] | ΔTm [3] [°C] | ΔTm [4] [°C] | MIC90 [5] [µg/mL] | MIC90 [6] [µg/mL] | MIC90 [7] [µg/mL] | MIC90 [8] [µg/mL] |
| --- | --- | --- | --- | --- | --- | --- | --- | --- |
| O=c1oc2cc(O)ccc2c2oc3ccc(O)c(CN4CCCCC4)c3c12 | 11.4 | 10.5 | 0.8 | 0.9 | – | – | – | – |
| COc1ccc2c(c1)oc(=O)c1c2oc2ccc(O)c(CN3CCC(F)(F)CC3)c21 | 1.9 | 1.7 | – | – | – | – | – | – |
| O=c1oc2cc(O)ccc2c2oc3ccc(O)c(CN4CCC(F)CC4)c3c12 | 8.7 | 9.6 | 1.5 | 1 | 0.125 (≈ 0.326 µM) | 0.0625 (≈ 0.163 µM) | 0.0625 (≈ 0.163 µM) | 0.0625 (≈ 0.163 µM) |
| O=c1oc2cc(O)ccc2c2oc3ccc(O)c(CN4CC[C@H](F)C4)c3c12 | 6.9 | 7.9 | – | – | – | – | – | – |
| O=c1oc2cc(O)ccc2c2oc3ccc4c(c3c12)CN(C1CCCC1)CO4 | 10.1 | 10.9 | 0.3 | 0.1 | 0.0039 (≈ 0.0103 µM) | 0.0039 (≈ 0.0103 µM) | 0.0039 (≈ 0.0103 µM) | 0.0039 (≈ 0.0103 µM) |
| O=c1oc2cc(O)ccc2c2oc3ccc4c(c3c12)CN(CC1CC1)CO4 | 8.6 | 9.3 | 0.2 | 0.1 | – | – | – | – |

Reference: ChEMBL document CHEMBL5104197, “Structure-Based Optimization of Coumestan Derivatives as Polyketide Synthase 13-Thioesterase(Pks13-TE) Inhibitors with Improved hERG Profiles for Mycobacterium tuberculosis Treatment” (J Med Chem, 2022)
